{"source": "patent US11230540B2", "about": "“Substituted triazole derivatives and uses thereof” (Bayer Pharma Aktiengesellschaft, priority 2017, dated 2022)", "key": {"[1]": {"biological_target": "T1, human V1a receptor (Homo sapiens, UniProt P37288)", "T1 construct": "expressed in transfected cells; host or cells: CHO K1 (Chinese hamster ovary), also stably transfected with a modified aequorin", "T1 sequence (P37288 whole entry)": "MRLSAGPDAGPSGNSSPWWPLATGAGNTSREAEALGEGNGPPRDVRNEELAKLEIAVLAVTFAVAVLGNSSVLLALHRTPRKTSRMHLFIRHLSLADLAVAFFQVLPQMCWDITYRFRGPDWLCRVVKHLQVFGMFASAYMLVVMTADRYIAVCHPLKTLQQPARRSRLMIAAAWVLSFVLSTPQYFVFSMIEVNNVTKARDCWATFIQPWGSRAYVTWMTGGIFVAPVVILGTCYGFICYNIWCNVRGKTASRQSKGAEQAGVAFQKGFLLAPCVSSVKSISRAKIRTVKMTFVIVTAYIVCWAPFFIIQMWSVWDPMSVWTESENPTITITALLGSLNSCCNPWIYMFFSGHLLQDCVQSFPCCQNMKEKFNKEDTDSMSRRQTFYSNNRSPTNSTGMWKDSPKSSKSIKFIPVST", "assay": "Cellular in vitro assay for vasopressin receptor activity, V1a receptor cell line (aequorin luminescence)", "assay_type": "cell-based", "conditions": "for IC50: CHO cell line transfected with human V1a receptor, [Arg8]-vasopressin at EC50 concentration, read-out: IC50 hV1a; for ratio IC50 hV2/hV1a: selectivity ratio of the IC50 values hV2/hV1a", "description": "(§1) B-1. Cellular In Vitro Assay for Determining Vasopressin Receptor Activity\n(§2) The identification of agonists and antagonists of the V1a and V2 vasopressin receptors from humans, rats and dogs as well as the quantification of the activity of the compounds of the invention is carried out using recombinant cell lines. These cell lines originally derive from a hamster's ovary epithelial cell (Chinese Hamster Ovary, CHO K1, ATCC: American Type Culture Collection, Manassas, Va. 20108, USA). The test cell lines constitutively express the human, rat or dog V1a or V2 receptors. In case of the […] V1a receptors, cells are also stably transfected with a modified form of the calcium-sensitive photoproteins aequorin (human and rat V1a) or obelin (dog V1a), which, after reconstitution with the cofactor coelenterazine, emit light when there are increases in free calcium concentrations [Rizzuto R, Simpson A W, Brini M, Pozzan T, Nature 358, 325-327 (1992); Illarionov B A, Bondar V S, Illarionova V A, Vysotski E S, Gene 153 (2), 273-274 (1995)]. The resulting vasopressin receptor cells react to stimulation of the recombinantly expressed V1a receptors by intracellular release of calcium ions, which can be quantified by the resulting photoprotein luminescence. The Gs-coupled V2 receptors are stably transfected into cell lines expressing the gene for firefly luciferase under control of a CRE-responsible promoter. Activation of V2 receptors induces the activation of the CRE-responsive promoter via cAMP increase, thereby inducing the expression of firefly luciferase. The light emitted by photoproteins of V1a cell lines as well as the light emitted by firefly luciferase of V2 cell lines corresponds to the activation or inhibition of the respective vasopressin receptor. The bioluminescence of the cell lines is detected using a suitable luminometer [Milligan G, Marshall F, Rees S, Trends in Pharmacological Sciences 17, 235-237 (1996)].\nVasopressin V1a Receptor Cell Lines:\nOn the day before the assay, the cells are plated out in culture medium (DMEM/F12, 2% FCS, 2 mM glutamine, 10 mM HEPES, 5 μg/ml coelenterazine) in 384-well microtiter plates and kept in a cell incubator (96% humidity, 5% v/v CO2, 37° C.). On the day of the assay, test compounds in various concentrations are placed for 10 minutes in the wells of the microtiter plate before the agonist [Arg^8]-vasopressin at EC50 concentration is added. The resulting light signal is measured immediately in a luminometer.\n(§3) Table 1A below lists individual IC50 values for the compounds of the invention (including racemic mixtures as well as separated enantiomers) that were obtained from cell lines transfected with the human V1a or V2 receptor: […]"}, "[2]": {"biological_target": "T2, human V2 receptor (Homo sapiens, UniProt P30518)", "T2 construct": "expressed in transfected cells; host or cells: CHO K1 (Chinese hamster ovary) expressing firefly luciferase under a CRE-responsive promoter", "T2 sequence (P30518 whole entry)": "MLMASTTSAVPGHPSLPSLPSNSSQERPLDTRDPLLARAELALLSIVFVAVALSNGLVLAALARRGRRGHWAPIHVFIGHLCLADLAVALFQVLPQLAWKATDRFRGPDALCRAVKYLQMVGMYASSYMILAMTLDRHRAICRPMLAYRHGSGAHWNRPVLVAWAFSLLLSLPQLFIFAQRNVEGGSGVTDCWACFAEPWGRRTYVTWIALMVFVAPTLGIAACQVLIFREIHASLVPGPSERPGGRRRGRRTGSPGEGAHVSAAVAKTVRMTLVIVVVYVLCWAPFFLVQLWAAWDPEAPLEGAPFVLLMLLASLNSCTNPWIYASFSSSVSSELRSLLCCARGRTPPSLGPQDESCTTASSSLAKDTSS", "assay": "Cellular in vitro assay for vasopressin receptor activity, V2 receptor cell line (CRE-luciferase)", "assay_type": "cell-based", "conditions": "CHO cell line transfected with human V2 receptor; [Arg8]-vasopressin at EC50 concentration; read-out: IC50 hV2", "description": "as §1, §2\nVasopressin V2 Receptor Cell Lines:\nOn the day before the assay, the cells are plated out in culture medium (DMEM/F12, 2% FCS, 2 mM glutamine, 10 mM HEPES) in 384-well microtiter plates and kept in a cell incubator (96% humidity, 5% v/v CO2, 37° C.). On the day of the assay, test compounds in various concentrations and the agonist [Arg^8]-vasopressin at EC50 concentration are added together to the wells, and plates are incubated for 3 hours in a cell incubator. Upon addition of the cell lysis reagent Triton™ and the substrate luciferin, luminescence of firefly luciferase is measured in a luminometer.\nas §3"}}, "data": [{"smiles": "NNC(=O)c1nc(Cn2nc(-c3ccc(Cl)cc3)n(C[C@H](O)C(F)(F)F)c2=O)nn1-c1cnccc1Cl", "note": "[Example 9, 3-({3-(4-Chlorophenyl)-5-oxo-4-[(2S)-3,3,3-trifluoro-2-hydroxypropyl]-4,5-dihydro-1H-1,2,4-triazol-1-yl}methyl)-1-(4-chloropyridin-3-yl)-1H-1,2,4-triazole-5-carbohydrazide]", "values": [{"measurement": "IC50", "setting": "[1]", "value": 0.0029, "unit": "µM"}, {"measurement": "ratio IC50 hV2/hV1a", "setting": "[1]", "value": 51.1}, {"measurement": "IC50", "setting": "[2]", "value": 0.148, "unit": "µM"}]}, {"smiles": "NNC(=O)c1nc(Cn2nc(-c3ccc(Cl)cc3)n(C[C@H](O)C(F)(F)F)c2=O)nn1-c1ncccc1Cl", "note": "[Example 10, 3-({3-(4-Chlorophenyl)-5-oxo-4-[(2S)-3,3,3-trifluoro-2-hydroxypropyl]-4,5-dihydro-1H-1,2,4-triazol-1-yl}methyl)-1-(3-chloropyridin-2-yl)-1H-1,2,4-triazole-5-carbohydrazide]", "values": [{"measurement": "IC50", "setting": "[1]", "value": 0.00215, "unit": "µM"}, {"measurement": "ratio IC50 hV2/hV1a", "setting": "[1]", "value": 44.0}, {"measurement": "IC50", "setting": "[2]", "value": 0.0945, "unit": "µM"}]}, {"smiles": "NNC(=O)c1nc(Cn2nc(-c3ccc(Cl)cc3)n(C[C@H](O)C(F)(F)F)c2=O)nn1-c1ncccc1OC(F)(F)F", "note": "[Example 11, 3-({3-(4-Chlorophenyl)-5-oxo-4-[(2S)-3,3,3-trifluoro-2-hydroxypropyl]-4,5-dihydro-1H-1,2,4-triazol-1-yl}methyl)-1-[3-(trifluoromethoxy)pyridin-2-yl]-1H-1,2,4-triazole-5-carbohydrazide]", "values": [{"measurement": "IC50", "setting": "[1]", "value": 0.0091, "unit": "µM"}, {"measurement": "ratio IC50 hV2/hV1a", "setting": "[1]", "value": 180.2}, {"measurement": "IC50", "setting": "[2]", "value": 1.64, "unit": "µM"}]}, {"smiles": "O=C(c1nc(Cn2nc(-c3ccc(Cl)cc3)n(C[C@H](O)C(F)(F)F)c2=O)nn1-c1ccccc1Cl)N1CC(O)(C(F)(F)F)C1", "note": "[Example 12, 5-(4-Chlorophenyl)-2-{[1-(2-chlorophenyl)-5-{[3-hydroxy-3-(trifluoromethyl)azetidin-1-yl]carbonyl}-1H-1,2,4-triazol-3-yl]methyl}-4-[(2S)-3,3,3-trifluoro-2-hydroxypropyl]-2,4-dihydro-3H-1,2,4-triazol-3-one]", "values": [{"measurement": "IC50", "setting": "[1]", "value": 0.00119, "unit": "µM"}, {"measurement": "ratio IC50 hV2/hV1a", "setting": "[1]", "value": 18.7}, {"measurement": "IC50", "setting": "[2]", "value": 0.0222, "unit": "µM"}]}, {"smiles": "CC(C)(O)CNC(=O)c1nc(Cn2nc(-c3ccc(Cl)cc3)n(C[C@H](O)C(F)(F)F)c2=O)nn1-c1cccnc1Cl", "note": "[Example 15, 3-({3-(4-Chlorophenyl)-5-oxo-4-[(2S)-3,3,3-trifluoro-2-hydroxypropyl]-4,5-dihydro-1H-1,2,4-triazol-1-yl}methyl)-1-(2-chloropyridin-3-yl)-N-(2-hydroxy-2-methylpropyl)-1H-1,2,4-triazole-5-carboxamide]", "values": [{"measurement": "IC50", "setting": "[1]", "value": 0.013, "unit": "µM"}, {"measurement": "IC50", "setting": "[2]", "value": 0.183, "unit": "µM"}]}, {"smiles": "O=C(NCC(F)(F)F)c1nc(Cn2nc(-c3ccc(Cl)cc3)n(C[C@H](O)C(F)(F)F)c2=O)nn1-c1ncccc1Br", "note": "[Example 16, 1-(3-Bromopyridin-2-yl)-3-({3-(4-chlorophenyl)-5-oxo-4-[(2S)-3,3,3-trifluoro-2-hydroxypropyl]-4,5-dihydro-1H-1,2,4-triazol-1-yl}methyl)-N-(2,2,2-trifluoroethyl)-1H-1,2,4-triazole-5-carboxamide]", "values": [{"measurement": "IC50", "setting": "[1]", "value": 0.00123, "unit": "µM"}, {"measurement": "ratio IC50 hV2/hV1a", "setting": "[1]", "value": 33.1}, {"measurement": "IC50", "setting": "[2]", "value": 0.0407, "unit": "µM"}]}, {"smiles": "O=C(NCC(F)(F)F)c1nc(Cn2nc(-c3ccc(Cl)cc3)n(C[C@H](O)C(F)(F)F)c2=O)nn1-c1ncccc1Cl", "note": "[Example 17, 3-({3-(4-Chlorophenyl)-5-oxo-4-[(2S)-3,3,3-trifluoro-2-hydroxypropyl]-4,5-dihydro-1H-1,2,4-triazol-1-yl}methyl)-1-(3-chloropyridin-2-yl)-N-(2,2,2-trifluoroethyl)-1H-1,2,4-triazole-5-carboxamide]", "values": [{"measurement": "IC50", "setting": "[1]", "value": 0.00071, "unit": "µM"}, {"measurement": "ratio IC50 hV2/hV1a", "setting": "[1]", "value": 40.2}, {"measurement": "IC50", "setting": "[2]", "value": 0.0283, "unit": "µM"}]}, {"smiles": "O=C(NCC(F)(F)F)c1nc(Cn2nc(-c3ccc(Cl)cc3)n(C[C@H](O)C(F)(F)F)c2=O)nn1-c1cccnc1Cl", "note": "[Example 18, 3-({3-(4-Chlorophenyl)-5-oxo-4-[(2S)-3,3,3-trifluoro-2-hydroxypropyl]-4,5-dihydro-1H-1,2,4-triazol-1-yl}methyl)-1-(2-chloropyridin-3-yl)-N-(2,2,2-trifluoroethyl)-1H-1,2,4-triazole-5-carboxamide]", "values": [{"measurement": "IC50", "setting": "[1]", "value": 0.0135, "unit": "µM"}, {"measurement": "ratio IC50 hV2/hV1a", "setting": "[1]", "value": 4.7}, {"measurement": "IC50", "setting": "[2]", "value": 0.064, "unit": "µM"}]}, {"smiles": "O=C(NCC(F)(F)F)c1nc(Cn2nc(-c3ccc(Cl)cc3)n(C[C@H](O)C(F)(F)F)c2=O)nn1-c1cnccc1Cl", "note": "[Example 19, 3-({3-(4-Chlorophenyl)-5-oxo-4-[(2S)-3,3,3-trifluoro-2-hydroxypropyl]-4,5-dihydro-1H-1,2,4-triazol-1-yl}methyl)-1-(4-chloropyridin-3-yl)-N-(2,2,2-trifluoroethyl)-1H-1,2,4-triazole-5-carboxamide]", "values": [{"measurement": "IC50", "setting": "[1]", "value": 0.00047, "unit": "µM"}, {"measurement": "ratio IC50 hV2/hV1a", "setting": "[1]", "value": 45.7}, {"measurement": "IC50", "setting": "[2]", "value": 0.0215, "unit": "µM"}]}, {"smiles": "COc1cccnc1-n1nc(Cn2nc(-c3ccc(Cl)cc3)n(C[C@H](O)C(F)(F)F)c2=O)nc1C(=O)NCC(C)(C)N", "note": "[Example 20, N-(2-Amino-2-methylpropyl)-3-({3-(4-chlorophenyl)-5-oxo-4-[(2S)-3,3,3-trifluoro-2-hydroxypropyl]-4,5-dihydro-1H-1,2,4-triazol-1-yl}methyl)-1-(3-methoxypyridin-2-yl)-1H-1,2,4-triazole-5-carboxamide]", "values": [{"measurement": "IC50", "setting": "[1]", "value": 0.00695, "unit": "µM"}, {"measurement": "ratio IC50 hV2/hV1a", "setting": "[1]", "value": 14.9}, {"measurement": "IC50", "setting": "[2]", "value": 0.104, "unit": "µM"}]}, {"smiles": "CNC(=O)c1nc(Cn2nc(-c3ccc(Cl)cc3)n(C[C@H](O)C(F)(F)F)c2=O)nn1-c1ncccc1OC", "note": "[Example 21, 3-({3-(4-Chlorophenyl)-5-oxo-4-[(2S)-3,3,3-trifluoro-2-hydroxypropyl]-4,5-dihydro-1H-1,2,4-triazol-1-yl}methyl)-1-(3-methoxypyridin-2-yl)-N-methyl-1H-1,2,4-triazole-5-carboxamide]", "values": [{"measurement": "IC50", "setting": "[1]", "value": 0.00605, "unit": "µM"}, {"measurement": "ratio IC50 hV2/hV1a", "setting": "[1]", "value": 3.7}, {"measurement": "IC50", "setting": "[2]", "value": 0.0225, "unit": "µM"}]}, {"smiles": "O=C(c1nc(Cn2nc(-c3ccc(Cl)cc3)n(C[C@H](O)C(F)(F)F)c2=O)nn1CCC(F)(F)F)N1CCOCC1", "note": "[Example 26, 5-(4-Chlorophenyl)-2-{[5-(morpholin-4-ylcarbonyl)-1-(3,3,3-trifluoropropyl)-1H-1,2,4-triazol-3-yl]methyl}-4-[(2S)-3,3,3-trifluoro-2-hydroxypropyl]-2,4-dihydro-3H-1,2,4-triazol-3-one]", "values": [{"measurement": "IC50", "setting": "[1]", "value": 0.075, "unit": "µM"}, {"measurement": "IC50", "setting": "[2]", "value": 0.73, "unit": "µM"}]}, {"smiles": "CC(C)(C)NC(=O)c1nc(Cn2nc(-c3ccc(Cl)cc3)n(C[C@H](O)C(F)(F)F)c2=O)nn1-c1ncccc1Cl", "note": "[Example 27, N-tert-Butyl-3-({3-(4-chlorophenyl)-5-oxo-4-[(2S)-3,3,3-trifluoro-2-hydroxypropyl]-4,5-dihydro-1H-1,2,4-triazol-1-yl}methyl)-1-(3-chloropyridin-2-yl)-1H-1,2,4-triazole-5-carboxamide]", "values": [{"measurement": "IC50", "setting": "[1]", "value": 0.00415, "unit": "µM"}, {"measurement": "ratio IC50 hV2/hV1a", "setting": "[1]", "value": 25.5}, {"measurement": "IC50", "setting": "[2]", "value": 0.106, "unit": "µM"}]}, {"smiles": "CC(C)(C)NC(=O)c1nc(Cn2nc(-c3ccc(Cl)cc3)n(C[C@H](O)C(F)(F)F)c2=O)nn1-c1ccccc1Cl", "note": "[Example 28, N-tert-Butyl-1-(2-chlorophenyl)-3-({3-(4-chlorophenyl)-5-oxo-4-[(2S)-3,3,3-trifluoro-2-hydroxypropyl]-4,5-dihydro-1H-1,2,4-triazol-1-yl}methyl)-1H-1,2,4-triazole-5-carboxamide]", "values": [{"measurement": "IC50", "setting": "[1]", "value": 0.00295, "unit": "µM"}, {"measurement": "ratio IC50 hV2/hV1a", "setting": "[1]", "value": 8.8}, {"measurement": "IC50", "setting": "[2]", "value": 0.026, "unit": "µM"}]}]}
